The values below come from ChEMBL document CHEMBL3044695, “Synthesis and insect antifeedant activity of C-2 and C-5 substituted perhydrofurofurans and 3a-hydroxy-perhydrofurofurans (Part I)” (Tetrahedron, 1999).

Series [1] has as its system Pieris brassicae. Description: Post-ingestive toxicity in Pieris brassicae on cabbage leaf discs at 5 mM. In kind it is organism-based. To be noted: in vivo, po, 5000 µM.
Series [2] relates to Pieris brassicae. The series is described as follows: Antifeedant activity against fifth-instar larvae of Pieris brassicae on cabbage leaf discs at 5 mM measured upto 3 hr time period by two-choice bioassay. In kind it is functional.
For series [3], the system named is Pieris brassicae. The series is described as follows: Antifeedant activity against fifth-instar larvae of Pieris brassicae on cabbage leaf discs at 5 mM measured 1.5 to 3 hr time period by no-choice bioassay. In kind it is functional.
For series [4], the system named is Pieris brassicae. Description: Antifeedant activity against fifth-instar larvae of Pieris brassicae on cabbage leaf discs at 5 mM measured 0 to 1.5 hr time period by no-choice bioassay. In kind it is functional.

For `C1CCC(C2C[C@@H]3CCO[C@@H]3O2)CC1` (some centres undefined), the Activity result in series [1] is reported as “Non-toxic”. The AFI in series [2] amounted to 26%; in series [3], 5.4%; in series [4], 6.7%.

`C1=C[C@@H]2CC(c3ccccc3)O[C@@H]2O1` (some centres undefined): the Activity entry in series [1] is reported as “Non-toxic”. The AFI in series [2] is recorded as 11%; in series [3], -2.6%; in series [4] it was -1.7%.

Regarding `COC1C[C@]2(O)C[C@@H](C3CCCCC3)O[C@@H]2O1` (some centres undefined), the AFI in series [2] is listed as 18%.

`CCCCCCCCCC[C@@H]1C[C@H]2CC(=O)O[C@H]2O1` (racemic): the AFI in series [2] is given as 10%.

Consider `CCOC1C[C@H]2CC(C3CCCCC3)O[C@H]2O1` (some centres undefined), for which, in series [1], the Activity result is on record as “Non-toxic”. Also, the AFI in series [2] stood at 20%; in series [3] it was 9.5%; in series [4] it was 18.3%.

In the case of `O=C1C[C@H]2CC(C3CCCCC3)O[C@H]2O1` (some centres undefined), in series [1], the Activity result is “Non-toxic”. For the same compound, the AFI was found to be 10% in series [2], 13.9% in series [3] and 22.4% in series [4].

Turning to `O=C1C[C@H]2C[C@@H](C3CCCCC3)O[C@@H]2O1` (relative stereo), the AFI in series [2] is given as 9%.

For `O=C1C[C@@H]2C[C@H](C3CCCCC3)O[C@@H]2O1` (relative stereo), the AFI in series [2] was 24%.

As to `C1=C[C@@H]2CC(C3CCCCC3)O[C@@H]2O1` (some centres undefined), the Activity result in series [1] is “Non-toxic”. Moreover, the AFI in series [2] is reported as -2.5%; in series [3] it was -12.3%; in series [4], -9.3%.

In the case of `CCCCCCCCCCC1C[C@H]2CC(=O)O[C@H]2O1` (some centres undefined), the AFI in series [2] is 41%.

For the compound `CC(=O)OC1C[C@]2(O)C[C@@H](C3CCCCC3)O[C@@H]2O1` (some centres undefined), the AFI in series [2] came to 9%.

On to `OC1C[C@]2(O)C[C@@H](C3CCCCC3)O[C@@H]2O1` (some centres undefined), for which the AFI in series [2] stood at 16%.

In the case of `CC(=O)OC1C[C@H]2CC(C3CCCCC3)O[C@H]2O1` (some centres undefined), the Activity entry in series [1] was “Non-toxic”. The AFI was determined as 16% in series [2], 3% in series [3] and 16.7% in series [4].

Take `O[C@]12CCO[C@H]1O[C@H](C1CCCCC1)C2`: the AFI in series [2] stood at 24%.

On to `OC1C[C@H]2CC(C3CCCCC3)O[C@H]2O1` (some centres undefined), for which the Activity entry in series [1] is “Non-toxic”. For the same compound, the AFI in series [2] amounted to 10%; in series [3], 15.9%; in series [4], 18.6%.

As for `O=C1C[C@@H]2C[C@@H](c3ccccc3)O[C@@H]2O1` (racemic), the AFI in series [2] is 18%.

`CCCCCCC1C[C@H]2CC(=O)O[C@H]2O1` (some centres undefined): the AFI in series [2] is recorded as -11%.

Take `CCCCCCC1C[C@H]2C=CO[C@H]2O1` (some centres undefined): the Activity entry in series [1] is reported as “Non-toxic”. The AFI in series [2] turned out to be 11%; in series [3], 10.6%; in series [4], 20.3%.

Regarding `O=C1C[C@]2(O)C[C@@H](C3CCCCC3)O[C@@H]2O1`, in series [2], the AFI turned out to be 9%.

Take `O[C@]12C=CO[C@H]1O[C@H](C1CCCCC1)C2`: in series [2], the AFI was found to be 54%.
